“Also recorded” adds a separate entry of the source. Where two headings read alike, the source gives them in different places.
Assays:
[1] = test system: MON (INI1−/−) rhabdoid tumor cells; assay: MTS survival assay of rhabdoid tumor cells; assay type: cell-based; conditions: charcoal adsorbed serum
[2] = test system: MON (INI1−/−) rhabdoid tumor cells; assay: MTS survival assay of rhabdoid tumor cells; assay type: cell-based; conditions: for cytotoxic activity against rhabdoid tumor cells (in words): compared with 4-HPR
Method: FIG. 1A-1D. Effect of 4HPR derivatives with phenyl group substitutions on survival of rhabdoid tumors cells. MON (INI1−/−) cells were treated with serial dilutions of the 4HPR, ATRA and 4HPR derivatives for three days. Survival assay was carried out as described using MTS assay kit. Percentage of cell survival plotted against concentration of drugs (Mean+/−SEM).
FIG. 2. Effect of fenretinide peptidomimitic derivatives on the survival of rhabdoid tumor cells in culture. % survival of MON rhabdoid tumor cells treated with fenretinide derivatives, when compared to the vehicle treated control. The data in all the panels represent the average of triplicate experiments, and the standard error is indicated.
(§1) The rhabdoid cell line (MON) (88) was cultured in RPMI 1640 supplemented with 10% fetal bovine serum, 2 mM L-glutamine, 50 U/ml penicillin, and 50 μg/ml streptomycin at 37° C. with 5% CO2 and 95% humidified air. 4-(Fenretinide) was either obtained from NCI or synthesized in house. Fenretinide or its synthetic derivatives were reconstituted in 100% ethanol as a 10 mM solution and the aliquots were stored frozen at −80° C., protected from light. Working solutions (50 μM or 200 μM) and serial dilutions were prepared by diluting the stock solution with culture medium, such that the concentration of ethanol was <2% in all dilutions.
Aliquots of 8×10^3 MON cells were plated in 96-well microdilution plates. Twenty four hours after seeding, the cells were treated with serial dilutions of each drug. Following incubation for 24 or more hours, each well was stained with 20 μl of MTS [3-(4,5-dimethylthiazol-2-yl)-5-(3-carboxymethoxyphenyl)-2-(4-sulfophenyl)-2H-tetrazolium, inner salt] that was mixed 20:1 V/V in PMS (phenazine methosulphate, CellTiter 96® AQueous Non-Radioactive Cell Proliferation Assay Kit, Promega, Madison, Wis.) added to each of the well in the microtiter plate containing 100 μl of culture medium. After 4 h incubation, the plates were analyzed by an ELISA plate reader (Wallac Victor, 1420 Multilabel Counter, Perkin Elmer) at 490 nm wave-length. Cell plating, drug treatment and survival assay were performed using the epMotion 5070 automated liquid handling robotic system (Eppendorff, Westbury, N.Y.).
Statistical analysis of the data was carried out using GraphPad Prism (San Diego, Calif.). Relative IC50 values were calculated using the nonlinear regression curve fit with sigmoidal dose response (variable slope) function. Relative IC50 is defined as the concentration giving a response exactly half way between the fitted top and bottom of the survival curve when graphed as percent inhibition versus the log of the concentration of compound. The fitting error, or standard error describes the error involved in fitting the curve.

MON cells = assay: FACS analysis of cell cycle and sub-G1 (apoptosis); assay type: cell-based; conditions: 2 days
Method: (§2) FIG. 3A-3B. Induction of cell cycle arrest and apoptosis by halogen derivatives of fenretinide. A. Cell cycle profile determined by FACS analysis of MON cells treated with either 5 or 10 μM concentrations of fenretinide and its derivatives for 2 days. Percentage of cells at various stages of cell cycle (G1, S and G2) is indicated. B. Percentage of MON cells at sub-G1 when exposed for 2 days to fenretinide and its derivatives.
as §2, with “4A-4B.” for “3A-3B.”, “peptidomimetic” for “halogen”
(§3) The effects of fenretinide, halogen substitutes, and peptidomimetic derivatives on cell cycle regulation and apoptosis were tested by using: i) cell survival assay (MTS); ii) FACS analysis; and iii) immunoblot analysis to determine the effect on Cyclin D1.

Cyclin D1 = assay: Immunoblot analysis of Cyclin D1 expression; assay type: cell-based; conditions: for Repression of Cyclin D1: biomarker expression, Table 3
Method: FIG. 5A-5B. Effect of fenretinide, its derivatives and peptidomimetic compounds on expression of Cyclin D1. Immunoblot analysis to determine the effect of fenretinide and its halogen substitutes (A) and peptidomimetic compounds (B). GAPDH is a loading control.
This assay was performed using a routine laboratory protocol as previously described using chemiluminescence detection method (30). The following antibodies were used: polyclonal α-cyclin D1 Ab-3 (NeoMarkers, Cat# RB-010-P0), monoclonal α-cyclin D1 DCS-6 (NeoMarkers, Cat# MS-210-P1), α-β-Actin (Sigma Cat# A5441) and α-Tubulin-α (Sigma, Cat # T5168).
as §3

[3] = Precipitation / solubility in cell culture medium; assay type: physicochemical
Method: as §1

[4] = 72 h, MON cells, three days, compounds in FIG. 1A-1D, concentration of drug required to kill 50% of cells, read-out: IC50
[5] = MON rhabdoid cells, survival assay, values in text, read-out: IC50
[6] = regular FBS, read-out: IC50 (in regular FBS)
[7] = MON cells, three days, compounds in FIG. 1A-1D, concentration of drug required to kill 50% of cells, read-out: IC50

Row | Compound | IC50 [2, 4] | IC50 [2, 5] | cytotoxic activity against rhabdoid tumor cells (in words) [2] | IC50 [2, 6] | % G1 (MON cells; 5 μM, Table 5) | % G2 (MON cells; 5 μM, Table 5) | % S (MON cells; 5 μM, Table 5) | SubG1 (percentage of MON cells at sub-G1) (MON cells; 5 μM, Table 5) | % G1 (MON cells; 10 μM, Table 5) | % G2 (MON cells; 10 μM, Table 5) | % S (MON cells; 10 μM, Table 5) | SubG1 (percentage of MON cells at sub-G1) (MON cells; 10 μM, Table 5) | other results
1 | CC1=C(/C=C/C(C)=C/C=C/C(C)=C/C(=O)Nc2ccc(O)c(I)c2)C(C)(C)CCC1 [5(j), (2E,4E,6E,8E)-[3,7-Dimethyl-9-(2,6,6-trimethyl-1-cyclohexenyl)-nona-2,4,6,8-tetraenoylamino]-(3-Iodo, 4-hydroxy)phenylamide] | 3 µM | ~3 µM | more active when compared to parent Fenretinide | 3 µM | 86.11% | 7.83% | 6.06% | 26.48% | 87.97% | 6.87% | 5.16% | 34.21% | IC50 [1]: 0.8 µM; Repression of Cyclin D1 (Cyclin D1): Yes
2 | CC1=C(/C=C/C(C)=C/C=C/C(C)=C/C(=O)Nc2ccc(Cl)cc2)C(C)(C)CCC1 [5(b), (2E,4E,6E,8E)-[3,7-Dimethyl-9-(2,6,6-trimethyl-1-cyclohexenyl)-nona-2,4,6,8-tetraenoylamino]-(4-chloro)phenylamide] | > 200 µM | ≥ 150 µM |  |  |  |  |  |  |  |  |  |  | 
3 | (2E,4E,6E,8E)-[3,7-Dimethyl-9-(2,6,6-trimethyl-1-cyclohexenyl)-nona-2,4,6,8-tetraenoylamino]-(4-bromo)phenylamide [5(c)] |  |  |  |  |  |  |  |  |  |  |  |  | IC50 [2, 7]: 150 µM
4 | CC1=C(/C=C/C(C)=C/C=C/C(C)=C/C(=O)Nc2ccc(O)cc2O)C(C)(C)CCC1 [5(n), (2E,4E,6E,8E)-[3,7-Dimethyl-9-(2,6,6-trimethyl-1-cyclohexenyl)-nona-2,4,6,8-tetraenoylamino]-(2,4-dihydroxy)phenylamide] | 8 µM | 8 µM | retains 4-HPR activity | 8 µM | 85.42% | 8.48% | 6.11% | 25.81% | 88.30% | 6.05% | 5.65% | 43.53% | 
5 | CC1=C(/C=C/C(C)=C/C=C/C(C)=C/C(=O)O)C(C)(C)CCC1 [ATRA, All-trans retinoic acid, reference compound] | 100 µM | 100 µM | did not have appreciable cytotoxic activity; also recorded: did not exhibit activities against rhabdoid tumor cells | > 50 µM | 82.64% | 11.04% | 6.32% | 8.22% | 82.08% | 11.21% | 6.71% | 9.27% | IC50 [1]: > 15 µM; % G1 (MON cells; 5 μM, Table 6): 82.64%; % G2 (MON cells; 5 μM, Table 6): 9.07%; % S (MON cells; 5 μM, Table 6): 8.58%; SubG1 (percentage of MON cells at sub-G1) (MON cells; 5 μM, Table 6): 8.22%; % G1 (MON cells; 10 μM, Table 6): 82.08%; % G2 (MON cells; 10 μM, Table 6): 8.18%; % S (MON cells; 10 μM, Table 6): 8.51%; SubG1 (percentage of MON cells at sub-G1) (MON cells; 10 μM, Table 6): 9.27%; Repression of Cyclin D1 (Cyclin D1): No; down modulation of Cyclin D1 (in words) (Cyclin D1; rhabdoid tumor cells): unable to down modulate Cyclin D1
6 | (2E,4E,6E,8E)-[3,7-Dimethyl-9-(2,6,6-trimethyl-1-cyclohexenyl)-nona-2,4,6,8-tetraenoylamino]-(4-ethylalcohol)phenylamide [5(m)] |  |  | lack of activity |  |  |  |  |  |  |  |  |  | IC50 [2, 7]: > 50 µM
7 | (2E,4E,6E,8E)-[3,7-Dimethyl-9-(2,6,6-trimethyl-1-cyclohexenyl)-nona-2,4,6,8-tetraenoylamino]-(4-nitro)phenylamide [5(e)] |  | > 200 µM |  |  |  |  |  |  |  |  |  |  | IC50 [2, 7]: > 200 µM
8 | CCC1=C(C)/C(=C/c2ccc(C(=O)O)cc2)CCC1(C)C [Compound 8] |  | > 50 µM |  |  |  |  |  |  |  |  |  |  | IC50 ([2]; MON cells, nonlinear regression, sigmoidal dose response, read-out: Relative IC50): > 50 µM
9 | (2E,4E,6E,8E)-[3,7-Dimethyl-9-(2,6,6-trimethyl-1-cyclohexenyl)-nona-2,4,6,8-tetraenoylamino]-(3-nitro, 4-hydroxy)phenylamide [5(k)] |  |  |  |  |  |  |  |  |  |  |  |  | behaviour in cell culture medium (precipitation / insolubility) [3]: insoluble in cell culture medium
10 | CC1=C(/C=C/C(C)=C/C=C/C(C)=C/C(=O)Nc2ccc(F)cc2)C(C)(C)CCC1 [5(a)] | 150 µM | ≥ 150 µM |  | > 50 µM | 78.56% | 14.61% | 6.84% | 8.30% | 65.50% | 27.25% | 7.25% | 9.44% | IC50 [1]: > 15 µM
11 | CC1=C(/C=C/C(C)=C/C=C/C(C)=C/C(=O)Nc2ccc(O)c(F)c2)C(C)(C)CCC1 [5(h), (2E,4E,6E,8E)-[3,7-Dimethyl-9-(2,6,6-trimethyl-1-cyclohexenyl)-nona-2,4,6,8-tetraenoylamino]-(3-fluoro,4-hydroxy)phenylamide] | 8 µM | 8 µM |  | 8 µM | 87.23% | 7.10% | 5.67% | 38.78% | 87.22% | 6.97% | 5.81% | 50.79% | Repression of Cyclin D1 (Cyclin D1): Yes
12 | COc1ccc(NC(=O)/C=C(C)/C=C/C=C(C)/C=C/C2=C(C)CCCC2(C)C)cc1 [5(f), (2E,4E,6E,8E)-[3,7-Dimethyl-9-(2,6,6-trimethyl-1-cyclohexenyl)-nona-2,4,6,8-tetraenoylamino]-(4-methoxy)phenylamide] |  |  |  |  |  |  |  |  |  |  |  |  | behaviour in cell culture medium (precipitation / insolubility) [3]: insoluble in cell culture medium
13 | CC1=C(/C=C/C(C)=C/C=C/C(C)=C/C(=O)Nc2ccc(O)c(Cl)c2)C(C)(C)CCC1 [5(i), (2E,4E,6E,8E)-[3,7-Dimethyl-9-(2,6,6-trimethyl-1-cyclohexenyl)-nona-2,4,6,8-tetraenoylamino]-(3-chloro, 4-hydroxy)phenylamide] | 12.5 µM | 10 µM |  | 10 µM |  |  |  |  |  |  |  |  | IC50 [1]: 1.5 µM; Repression of Cyclin D1 (Cyclin D1): Yes
14 | CCC1=C(C)/C(=C/c2ccc(C(=O)Nc3ccc(O)cc3)cc2)CCC1(C)C [Compound 11a, (E)-4-((3-ethyl-2,4,4-trimethylcyclohex-2-enylidene)methyl)-N-(4-hydroxyphenyl)benzamide] |  |  |  |  |  |  |  |  |  |  |  |  | % G1 (MON cells; 5 μM, Table 6): 59.33%; % G2 (MON cells; 5 μM, Table 6): 26.19%; % S (MON cells; 5 μM, Table 6): 14.49%; SubG1 (percentage of MON cells at sub-G1) (MON cells; 5 μM, Table 6): 53.97%; % G1 (MON cells; 10 μM, Table 6): 60.40%; % G2 (MON cells; 10 μM, Table 6): 22.84%; % S (MON cells; 10 μM, Table 6): 16.76%; SubG1 (percentage of MON cells at sub-G1) (MON cells; 10 μM, Table 6): 62.59%; behaviour in cell culture medium (precipitation / insolubility) [3]: precipitated in cell culture medium
15 | (2E,4E,6E,8E)-[3,7-Dimethyl-9-(2,6,6-trimethyl-1-cyclohexenyl)-nona-2,4,6-tetraenoylamino]-(4-alcohol)phenylamide [5(l)] |  |  | lack of activity |  |  |  |  |  |  |  |  |  | IC50 [2, 7]: 25 µM

Source: patent US8460635B2, “Fenretinide derivatives and uses thereof as therapeutic, diagnostic and imaging agents” (Albert Einstein College of Medicine of Yeshiva University, priority 2008, dated 2013)
